Assay results as given in article PMC10247784, “Physiological activation of human and mouse bitter taste receptors by bile acids” (Communications Biology, 2023).
Values joined by “and” are separate entries in the source; they are usually repeats but may differ in a detail not shown here. Identical values can stand only once.

Target: T1, human TAS2R46 (Homo sapiens, UniProt P59540)
T1 construct: expressed in transfected cells; host or cells: HEK293T-Gα16gust44
T1 sequence (P59540 1-309): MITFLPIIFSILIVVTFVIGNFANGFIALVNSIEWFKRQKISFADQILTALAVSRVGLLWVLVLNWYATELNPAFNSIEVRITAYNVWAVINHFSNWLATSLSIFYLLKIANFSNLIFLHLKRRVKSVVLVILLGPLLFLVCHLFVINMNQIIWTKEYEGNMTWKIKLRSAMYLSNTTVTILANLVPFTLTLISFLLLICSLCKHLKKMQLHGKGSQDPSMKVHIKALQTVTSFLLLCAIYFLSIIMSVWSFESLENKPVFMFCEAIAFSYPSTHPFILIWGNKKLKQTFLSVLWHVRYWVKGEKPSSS
Assay: Calcium imaging assay (FLIPR), HEK293T-Gα16gust44 cells transfected with human TAS2R46
Type: cell-based
Conditions: for Efficacy = maximal amplitude (ΔF/F) / Efficacy (maximal amplitude ΔF/F), individual data points / Δ F/F: TAS2R46; for Efficacy = maximal amplitude (ΔF/F) / Efficacy (maximal amplitude ΔF/F), individual data points: bile acids; for Efficacy = maximal amplitude (ΔF/F): mean; for Efficacy (maximal amplitude ΔF/F), individual data points: single replicates; for Activation threshold concentration TAS2R46: lowest concentration with significantly increased fluorescence vs empty vector (p < 0.01); for Efficacy (signal amplitude) versus control stimulus, TAS2R46: highest applied concentrations, control 10 µM strychnine
Experimental: This set of bile acids was chosen because of their commercial availability in high purities, their diversity within the class of bile acids and their previous detection and quantitation in human blood. Stock solutions were prepared in DMSO.
As basal growth medium for the HEK293T-Gα16gust44 cell line[17],[59] served Dulbecco’s modified eagle medium (DMEM) (Thermo Fisher Scientific, Darmstadt, Germany) supplemented with 10 % fetal bovine serum (Sigma-Aldrich, Steinheim, Germany), 2 mM L-glutamine (Sigma-Aldrich, Steinheim, Germany), 100 units/ml penicillin (Sigma Aldrich, Steinheim, Germany) and 100 µg/ml streptomycin (Sigma Aldrich, Steinheim, Germany). Growth conditions were 37 °C, 5 % CO2 and saturated air-humidity[60].
HEK293T-Gα16gust44 cells were seeded on poly-D-lysine (10 µg/ml) coated 96-well plates to reach a confluence of 40-60 % the next day. For transient transfection 150 ng of plasmid DNA containing the receptor of interest and 0.3 µl lipofectamine 2000 (Thermo Fisher Scientific, Darmstadt, Germany) per well were used and transfection took place according to the manual of lipofectamine 2000. […] The empty vector DNA (mock) was transfected as negative control[14],[41].
Cells were loaded using the calcium-sensitive fluorescent dye Fluo-4-AM (Abcam, Cambridge, Great Britain) in the presence of 2.5 mM probenecid (Sigma-Aldrich, Steinheim, Germany) the day after transfection[13],[41]. 1 h after loading, cells were washed with C1 buffer using a BioTek Cell Washer, incubated in the dark for half an hour and washed again. For automated agonist application and measurement of fluorescence changes, a FLIPR^TETRA device (Molecular Devices, San José, United States) was used. Viability of cells was tested by application of 100 nM Somatostatin 14 (Bachem, Bubendorf, Switzerland)[42].
Measured data were negative control corrected by subtracting the signal of the mock-transfected cells and exported to Microsoft Excel using the FLIPR software ScreenWorks 4.2. In Microsoft Excel software, standardization of maximum fluorescence intensities to the basal fluorescence and normalization to the buffer-only control was done to calculate the relative fluorescence changes (ΔF/F).
Initial screening experiments performed in duplicate wells were confirmed by at least one replication and representative traces were selected for display. All dose-response relationships were determined by three independent experiments (biological replicates) performed in duplicates (technical replicates). Threshold concentrations, defined as lowest substance concentrations leading to statistically significant elevated fluorescence changes in receptor-transfected cells compared with empty vector-transfected cells, were determined using SigmaPlot with Student’s t-test to evaluate statistical significance (p < 0.01).

## C[C@H](CCC(=O)NCC(=O)O)[C@H]1CC[C@H]2[C@@H]3[C@H](O)C[C@@H]4C[C@H](O)CC[C@]4(C)[C@H]3C[C@H](O)[C@]12C [Glycocholic Acid, glycocholic acid]
  Efficacy = maximal amplitude (ΔF/F): 0.0591
  Activation threshold concentration TAS2R46: 1000 µM
Listed as GCA
  Efficacy (maximal amplitude ΔF/F), individual data points: 0.05097 and 0.06295 and 0.06339
conc. 0,01 mM
  Δ F/F: 0.003139
conc. 0,1 mM
  Δ F/F: 0.004292
conc. 0,03 mM
  Δ F/F: 0.007529
conc. 0,3 mM
  Δ F/F: 0.01216
conc. 0,001 mM
  Δ F/F: 0.002929
conc. 1 mM
  Δ F/F: 0.0591
conc. 0,003 mM
  Δ F/F: 0.003879

## C[C@H](CCC(=O)NCCS(=O)(=O)O)[C@H]1CC[C@H]2[C@@H]3[C@H](O)C[C@@H]4C[C@H](O)CC[C@]4(C)[C@H]3C[C@H](O)[C@]12C [Taurocholic Acid, taurocholic acid]
  Efficacy = maximal amplitude (ΔF/F): 0.03422
  Activation threshold concentration TAS2R46: 1000 µM
Listed as TCA
  Efficacy (maximal amplitude ΔF/F), individual data points: 0.02095 and 0.04014 and 0.04158
conc. 0,01 mM
  Δ F/F: 0.006451
conc. 0,1 mM
  Δ F/F: 0.007108
conc. 0,03 mM
  Δ F/F: 0.004646
conc. 0,3 mM
  Δ F/F: 0.00491
conc. 0,001 mM
  Δ F/F: 0.003048
conc. 1 mM
  Δ F/F: 0.03422
conc. 0,003 mM
  Δ F/F: 0.00216

## C[C@H](CCC(=O)NCCS(=O)(=O)O)[C@H]1CC[C@H]2[C@@H]3CC[C@@H]4C[C@H](O)CC[C@]4(C)[C@H]3CC[C@]12C [Taurolithocholic Acid, taurolithocholic acid]
  Efficacy = maximal amplitude (ΔF/F): 0.2226
  Efficacy (signal amplitude) versus control stimulus, TAS2R46: about equal to that obtained for strychnine
  Activation threshold concentration TAS2R46: 0.3 µM
Listed as TLCA
  Efficacy (maximal amplitude ΔF/F), individual data points: 0.2236 and 0.2143 and 0.2299
  Efficacy (signal amplitude) versus control stimulus, TAS2R46: significantly higher than that of TCA and GCA and comparable to the control stimulus strychnine
Listed as TCLA
  Efficacy (signal amplitude) versus control stimulus, TAS2R46: full agonist
